target: T1, wt human LRRK2, catalytic site (Homo sapiens, UniProt Q5S007); experiment: TR-FRET LanthaScreen Tb Kinase Activity Assay (Example 71); type: biochemical; conditions: compounds of Table 4, 38 uM ATP, method names only wt human LRRK2, read-out: IC50, Inhibitory Activity Toward LRRK2 (Wt) and LRRK2 (G2019)
T1 construct: wt human LRRK2, catalytic site; purchased ThermoFisher/USA
Experimental: The compounds in Table 4 were tested for their inhibitory effect on LRRK2 kinases according to the following procedures.
The basic protocol for TR-FRET LanthaScreen Tb Kinase Activity Assay inhibitor studies were performed as follows. LanthaScreen Kinase Activity Assays (ThermoFisher/USA) to evaluate inhibitors were performed by addition of 100 nl of test compound in corresponding DMSO dilutions/5 μl of kinase/fluorescein-ERM(LRRKtide) peptide mixture, 5 μl of ATP into 384 well small volume plates. After incubation for 120 minutes at room temperature, the detection reagents containing Tb-anti-pLRRKtide antibody were added to monitor phosphrylation level of peptide. Then, after 60 min minutes incubation at room temperature plates were read in Envision. Data analysis of emission ratios was according to LanthaScreen Tb Kinase Activity Assay protocol.
Kinase and assay components were adjusted to final concentrations according to the kit protocol. For LRRK2: 2 nM wt human LRRK2, catalytic site, catalytic site (ThermoFisher/USA), 400 nM peptide, 38 uM ATP in 1× Kinase Buffer A.
Basic protocol for TR-FRET LanthaScreen Tb Kinase Activity Assay inhibitor studies involved two steps:
Enzymatic step: Addition of 100 nl of test compound in corresponding DMSO dilutions, 5 μl of kinase/substrate mixture, 5 μl of ATP into 384 well small volume plates. Incubation for 120 minutes at room temperature.
Detection step: Addition of 10 μl EDTA & antibody, read plate after 60 minutes. Data analysis of emission ratios according to KinEASE assay protocol.

T1 sequence (Q5S007 1879-2138 limits assumed): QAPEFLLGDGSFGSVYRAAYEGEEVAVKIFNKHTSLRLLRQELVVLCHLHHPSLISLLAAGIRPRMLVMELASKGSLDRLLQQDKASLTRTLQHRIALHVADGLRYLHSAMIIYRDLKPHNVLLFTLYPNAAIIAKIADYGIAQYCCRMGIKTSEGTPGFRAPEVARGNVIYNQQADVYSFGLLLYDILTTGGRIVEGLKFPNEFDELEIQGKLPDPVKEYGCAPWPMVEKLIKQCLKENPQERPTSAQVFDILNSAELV

Structure (SMILES) | IC50
Cc1cccc(C)c1C1=Nc2cn[nH]c2-c2cnn3c2N1CCC3 [Compound 379, 8-(2,6-dimethylphenyl)-3,4,7,9,13,14-hexazatetracyclo[7.6.1.02,6.013,16]hexadeca-1(16),2(6),4,7,14-pentaene] | 100 to 1000 nM
Fc1cc(Cl)cc(F)c1C1=Nc2cn[nH]c2-c2cnn3c2N1CCC3 [Compound 385, 9-(4-chloro-2,6-difluorophenyl)-3,6,7,8-tetrahydro-2,3,5,5a,8a,10-hexaazabenzo[cd]cyclopenta[h]azulene] | 10 to 100 nM
OCc1cc(F)c(C2=Nc3cn[nH]c3-c3cc(C(F)(F)F)cc4[nH]cc2c34)c(F)c1 [Compound 406, (3,5-difluoro-4-(9-(trifluoromethyl)-1,7-dihydropyrazolo[3′,4′:6,7]azepino[3,4,5-cd]indol-3-yl)phenyl)methanol] | < 10 nM
Cc1nn2c3c1CCCN3C(c1c(F)cccc1F)=Nc1cn[nH]c1-2 [Compound 374, 8-(2,6-difluorophenyl)-14-methyl-1,3,4,7,9,15-hexazatetracyclo[7.6.1.02,6.013,16]hexadeca-2(6),4,7,13(16),14-pentaene] | 100 to 1000 nM
CC1CN2C(c3c(F)cccc3F)=Nc3cn[nH]c3-c3cnn(c32)C1 (stereo not shown) [Compound 348, 9-(2,6-difluorophenyl)-7-methyl-2,6,7,8-tetrahydro-2,3,5,5a,8a,10-hexaazabenzo[cd]cyclopenta[h]azulene] | < 10 nM
Fc1cc(F)c(C2=Nc3cn[nH]c3-c3cnn4c3N2CC4)c(F)c1 [Compound 387, 3-(2,4,6-trifluorophenyl)-2,7-dihydro-1H-2a,4,6,7,9,9a-hexaazadicyclopenta[cd,f]azulene] | < 10 nM
Clc1ccccc1C1=Nc2cn[nH]c2-c2cnn3c2N1CCCC3 [Compound 364, 10-(2-chlorophenyl)-6,7,8,9-tetrahydro-3H-2,3,5,5a,9a,11-hexaazadicyclopenta[b,kl]heptalene] | 100 to 1000 nM
Fc1ccccc1C1=Nc2cn[nH]c2-c2cnn3c2N1CCC3 [Compound 362, 9-(2-fluorophenyl)-3,6,7,8-tetrahydro-2,3,5,5a,8a,10-hexaazabenzo[cd]cyclopenta[h]azulene] | 10 to 100 nM
Cc1cccc(F)c1C1=Nc2cn[nH]c2-c2cnn3c2N1CC3 [Compound 382, 8-(2-fluoro-6-methyl-phenyl)-3,4,7,9,12,13-hexazatetracyclo[7.5.1.02,6.012,15]pentadeca-1(15),2(6),4,7,13-pentaene] | < 10 nM
Fc1ccc(Cl)c(F)c1C1=Nc2cn[nH]c2-c2cnn3c2N1CCC3 [Compound 368, 8-(3-chloro-2,6-difluoro-phenyl)-3,4,7,9,13,14-hexazatetracyclo[7.6.1.02,6.013,16]hexadeca-1(16),2(6),4,7,14-pentaene] | < 10 nM
N#Cc1ccc(F)c(C2=Nc3cn[nH]c3-c3cc(C(F)(F)F)cc4[nH]cc2c34)c1F [Compound 405, 2,4-difluoro-3-(9-(trifluoromethyl)-1,7-dihydropyrazolo[3′,4′:6,7]azepino[3,4,5-cd]indol-3-yl)benzonitrile] | < 10 nM
Fc1cncc(F)c1C1=Nc2cn[nH]c2-c2cnn3c2N1CCC3 [Compound 376, 8-(3,5-difluoro-4-pyridyl)-3,4,7,9,13,14-hexazatetracyclo[7.6.1.02,6.013,16]hexadeca-1(16),2(6),4,7,14-pentaene] | 10 to 100 nM
CC1CCN2C(c3c(F)cccc3F)=Nc3cn[nH]c3-c3cnn1c32 (stereo not shown) [Compound 345, 9-(2,6-difluorophenyl)-6-methyl-3,6,7,8-tetrahydro-2,3,5,5a,8a,10-hexaazabenzo[cd]cyclopenta[h]azulene] | < 10 nM
Fc1cccc(C(F)F)c1C1=Nc2cn[nH]c2-c2cnn3c2N1CCC3 [Compound 381, 8-[2-(difluoromethyl)-6-fluoro-phenyl]-3,4,7,9,13,14-hexazatetracyclo[7.6.1.02,6.013,16]hexadeca-1(16),2(6),4,7,14-pentaene] | 10 to 100 nM
Cc1ccc(F)c(C2=Nc3c(C)n[nH]c3-c3cnn4c3N2CCC4)c1F [Compound 396, 9-(2,6-difluoro-3-methylphenyl)-1-methyl-3,6,7,8-tetrahydro-2,3,5,5a,8a,10-hexaazabenzo[cd]cyclopenta[h]azulene] | < 10 nM
Cc1n[nH]c2c1N=C(c1c(F)cccc1F)N1CCCn3ncc-2c31 [Compound 370, 9-(2,6-difluorophenyl)-1-methyl-3,6,7,8-tetrahydro-2,3,5,5a,8a,10-hexaazabenzo[cd]cyclopenta[h]azulene] | < 10 nM
COc1cc(F)c(C2=Nc3cn[nH]c3-c3cnn4c3N2CCC4)c(F)c1 [Compound 360, 8-(2,6-difluoro-4-methoxy-phenyl)-3,4,7,9,13,14-hexazatetracyclo[7.6.1.02,6.013,16]hexadeca-1(16),2(6),4,7,14-pentaene] | 10 to 100 nM
Cc1nc2c3n1CCCN3C(c1c(F)cccc1F)=Nc1cn[nH]c1-2 [Compound 352] | > 1000 nM
Fc1cc(Cl)cc(F)c1C1Nc2cn[nH]c2-c2cnn3c2N1CCC3 (stereo not shown) [Compound 402, 9-(4-chloro-2,6-difluorophenyl)-3,6,7,8,9,10-hexahydro-2,3,5,5a,8a,10-hexaazabenzo[cd]cyclopenta[h]azulene] | 100 to 1000 nM
Cc1nn2c3c1-c1[nH]ncc1N=C(c1c(F)cccc1F)N3CCC2 [Compound 366, 9-(2,6-difluorophenyl)-4-methyl-3,6,7,8-tetrahydro-2,3,5,5a,8a,10-hexaazabenzo[cd]cyclopenta[h]azulene] | 100 to 1000 nM
Fc1cccc(F)c1C1=Nc2c(Cl)n[nH]c2-c2cnn3c2N1CC3 [Compound 375, 5-chloro-3-(2,6-difluorophenyl)-2,7-dihydro-1H-2a,4,6,7,9,9a-hexaazadicyclopenta[cd,f]azulene] | < 10 nM
Fc1cccc(C(F)(F)F)c1C1=Nc2cn[nH]c2-c2cnn3c2N1CCC3 [Compound 380, 8-[2-fluoro-6-(trifluoromethyl)phenyl]-3,4,7,9,13,14-hexazatetracyclo[7.6.1.02,6.013,16]hexadeca-1(16),2(6),4,7,14-pentaene] | 10 to 100 nM
Cc1ccc(F)c(C2=Nc3cn[nH]c3-c3cnn4c3N2CCC4)c1F [Compound 354, 9-(2,6-difluoro-3-methylphenyl)-3,6,7,8-tetrahydro-2,3,5,5a,8a,10 Hexaazabenzo[cd]cyclopenta[h]azulene] | < 10 nM
Clc1cccc(Cl)c1C1=Nc2cn[nH]c2-c2cnn3c2N1CCC3 [Compound 342, 9-(2,6-dichlorophenyl)-3,6,7,8-tetrahydro-2,3,5,5a,8a,10-hexaazabenzo[cd]cyclopenta[h]azulene] | 10 to 100 nM
N#Cc1cc(F)c(C2=Nc3cn[nH]c3-c3cnn4c3N2CCC4)c(F)c1 [Compound 358] | 10 to 100 nM
COc1cc(F)c(C2=Nc3cn[nH]c3-c3cc(C(F)(F)F)cc4[nH]cc2c34)c(F)c1 [Compound 408] | 10 to 100 nM
Fc1cccc(C2CC2)c1C1=Nc2cn[nH]c2-c2cnn3c2N1CCC3 [Compound 356, 9-(2-cyclopropyl-6-fluorophenyl)-3,6,7,8-tetrahydro-2,3,5,5a,8a,10-hexaazabenzo[cd]cyclopenta[h]azulene] | 10 to 100 nM
N#Cc1ccc(F)c(C2=Nc3cn[nH]c3-c3cnn4c3N2CC4)c1F [Compound 394, 3-(2,7-dihydro-1H-2a,4,6,7,9,9a-hexaazadicyclopenta[cd,f]azulen-3-yl)-2,4-difluorobenzonitrile] | < 10 nM

From patent US20240067655A1 (NEURON23, INC., priority 2020, published 2024)
